≈ marks a conversion by molar mass, not a printed value. Read-outs that look alike come from different tables or passages of the source. Marks after values point to notes of the source that are not given here.
What was measured:
[1] = system: M. tuberculosis strain H37Rv (mid-log and nutrient-starved); test: Nutrient starvation model of nonreplicating persisters; assay type: cell-based, Mycobacterium tuberculosis
[2] = system: Stenotrophomonas maltophilia (ATCC 13637); test: MIC, spectrum of activity: S.m.; assay type: cell-based; conditions: ATCC13637, read-out: Minimum Inhibitory Concentration, S.m.
[3] = system: Pseudomonas aeruginosa (PA01); test: microbe, parasite or virus in culture; assay type: cell-based
[4] = mouse, plasma; cited from earlier work
[5] = system: Burkholderia cepacia (ATCC 25416); test: MIC, spectrum of activity: B.c.; assay type: cell-based; conditions: ATCC25416, read-out: Minimum Inhibitory Concentration, B.c.
[6] = system: Streptococcus pneumoniae (R6); test: MIC, spectrum of activity: S.pn; assay type: cell-based; conditions: read-out: Minimum Inhibitory Concentration, S. Pn.
[7] = In vitro cytotoxicity against Vero cells; conditions: African green monkey, Vero cells (kidney epithelial cells, ATCC CCL-81)
Vero cells = test: In vitro cytotoxicity against Vero cells
M. tuberculosis Erdman = conditions: for Log10CFU Reduction (SEM), lungs / Log10CFU Reduction (SEM), spleen: vs untreated
M. ulcerans (ATCC 35840) = test: MIC by agar proportion method: M. ulcerans; assay type: cell-based; conditions: Mycobacterium ulcerans, ATCC35840, 672 h; agar proportion method, 4 weeks; read-out: Minimum Inhibitory Concentration, M. ulcerans
[8] = system: Bacillus anthracis sterne 34F2; test: microbe, parasite or virus in culture; assay type: cell-based; conditions: STERNE34F2, read-out: Minimum Inhibitory Concentration, B.a.
[9] = system: Staphylococcus aureus (NRS70); test: MIC, spectrum of activity: MRSA; assay type: cell-based; conditions: read-out: Minimum Inhibitory Concentration, MRSA
M. tuberculosis H37Rv = test: Minimum bactericidal concentration determination; assay type: cell-based, Mycobacterium tuberculosis
[10] = system: Acinetobacter baumannii (ATCC 19606); test: MIC, spectrum of activity: Acinetobacter baumannii; assay type: cell-based; conditions: ATCC19606
[11] = system: hypoxic M. tuberculosis strain H37Rv; test: NRP bacteria under hypoxia (rapid anaerobic dormancy model); assay type: cell-based, Mycobacterium tuberculosis
[12] = system: Enterococcus faecalis (ATCC 33186); test: MIC, spectrum of activity: E.f.; assay type: cell-based; conditions: ATCC33186, read-out: Minimum Inhibitory Concentration, E.f.
[13] = system: Staphylococcus aureus (ATCC 29213); test: MIC, spectrum of activity: S.a.; assay type: cell-based; conditions: ATCC29213, read-out: Minimum Inhibitory Concentration, S.a
[14] = system: Proteus vulgaris (ATCC 33420); test: MIC, spectrum of activity: Proteus vulgaris; assay type: cell-based; conditions: ATCC33420
[15] = rat, in vivo, cited from earlier work
E. coli K12 ∆tolC = assay type: cell-based; conditions: E. coli K12 ∆tolC (efflux pump deficient)
H37Rv-wt = test: microbe, parasite or virus in culture; assay type: cell-based, M. tuberculosis; conditions: Mycobacterium tuberculosis
[16] = system: Escherichia coli (ATCC 700926); test: MIC, spectrum of activity: E.c.; assay type: cell-based; conditions: ATCC700926, read-out: Minimum Inhibitory Concentration, E.c.
[17] = system: Proteus mirabilis(ATCC 25933); test: MIC, spectrum of activity: Proteus mirabilis; assay type: cell-based; conditions: ATCC25933
M. kansasii (ATCC 12478) = test: MIC, non-tuberculosis mycobacteria: M. kansasii; assay type: cell-based; conditions: Mycobacterium kansasii, ATCC12478, 168 h; broth dilution, visual inspection, 7 days; read-out: Minimum Inhibitory Concentration, M. kansasii
[18] = cited from earlier work
[19] = system: Streptococcus pyogenes (ATCC 700294); test: MIC, spectrum of activity: S.py; assay type: cell-based; conditions: ATCC700294, read-out: Minimum Inhibitory Concentration, S. Py.
M. avium (ATCC 25291) = test: MIC, non-tuberculosis mycobacteria: M. avium; assay type: cell-based; conditions: Mycobacterium avium, ATCC25291, 168 h; broth dilution, visual inspection, 7 days; read-out: Minimum Inhibitory Concentration, M. avium
M. fortuitum (ATCC 6841) = test: MIC, non-tuberculosis mycobacteria: M. fortuitum; assay type: cell-based; conditions: Mycolicibacterium fortuitum, ATCC6841, 72 h; broth dilution, visual inspection, 3 days; read-out: Minimum Inhibitory Concentration, M. fortuitum
[20] = system: M. abscessus (ATCC 19977); test: MIC, non-tuberculosis mycobacteria: M. abscessus; assay type: cell-based; conditions: Mycobacteroides abscessus, ATCC19977, 72 h; broth dilution, visual inspection, 3 days; range of at least two independent experiments; read-out: Minimum Inhibitory Concentration, M. abscessus
[21] = system: Bacillus subtilis (ATCC 23857); test: MIC, spectrum of activity: B.s.; assay type: cell-based; conditions: ATCC23857, read-out: Minimum Inhibitory Concentration, B.s.
[22] = group 1: 9a 300 mg/kg QD oral, 9 days, in 0.5% methylcellulose in DI-H2O
[23] = group 2: 9a 300 mg/kg QD oral, 9 days, in 30% Captisol in DI-H2O
[24] = group 3: 9a 300 mg/kg QD oral, 9 days, in 10% Vitamin E TPGS in DI-H2O
[25] = group 4: 9a 300 mg/kg QD oral, 9 days, in 0.5% Tween 80 in DI-H2O
[26] = group 5: 9a 300 mg/kg QD oral, 9 days, in 20% cyclodextrin in DI-H2O
[27] = group 6: 9a 300 mg/kg QD oral, 9 days, in cold PEG (50:35:15 H2O:PEG300:PG)

## O=[N+]([O-])c1ccc(C2=NOC(c3ccc(N4CCC(Oc5ccc(OC(F)(F)F)cc5)CC4)cc3)C2)o1 (stereo not shown) [Compound 9a, 3-(5-Nitrofuran-2-yl)-5-(4-(4-(4-(trifluoromethoxy)phenoxy)piperidin-1-yl)phenyl)-4,5-dihydroisoxazole]
[1]
  reduction in viability (killing) of actively growing culture: 80%
  reduction in viability of nutrient starved bacilli: 80%
[2]
  MIC: 25 µg/mL (≈ 48.3 µM)
[3]
  MIC: > 200 µg/mL
[4]
  Plasma Protein binding: 99.9 ^h %
[5]
  MIC: 50 µg/mL (≈ 96.6 µM)
[6]
  MIC: 100 µg/mL (≈ 193 µM)
[7]
  IC50: 19.4 µg/mL (≈ 37.5 µM)
Vero cells
  Selective Index (Cytox/MIC): 808
M. tuberculosis Erdman; GKO mice, 300 mg/kg oral daily, 9 days, across formulations
  reduction of bacterial load in lungs: 91–97%
M. tuberculosis Erdman; GKO mice, after 9 days of treatment
  reduction in bacillary load, lungs and spleens: > 90%
M. tuberculosis Erdman; GKO mice, daily oral administration at 300 mg/kg, 9 days, each of six formulations
  tolerability: well tolerated
M. tuberculosis Erdman; [22]
  Log10CFU Reduction (SEM), lungs: 1.06 (0.18) Log10CFU
  Log10CFU (SEM), lungs: 7.01 (0.11) Log10CFU
  Log10CFU Reduction (SEM), spleen: 0.95 (0.18) Log10CFU
  Log10CFU (SEM), spleen: 6.25 (0.11) Log10CFU
M. tuberculosis Erdman; [23]
  Log10CFU Reduction (SEM), lungs: 1.30 (0.20) Log10CFU
  Log10CFU (SEM), lungs: 6.77 (0.14) Log10CFU
  Log10CFU Reduction (SEM), spleen: 1.48 (0.17) Log10CFU
  Log10CFU (SEM), spleen: 5.72 (0.09) Log10CFU
M. tuberculosis Erdman; [24]
  Log10CFU Reduction (SEM), lungs: 1.47 (0.18) Log10CFU
  Log10CFU (SEM), lungs: 6.61 (0.11) Log10CFU
  Log10CFU Reduction (SEM), spleen: 1.77 (0.27) Log10CFU
  Log10CFU (SEM), spleen: 5.43 (0.23) Log10CFU
M. tuberculosis Erdman; [25]
  Log10CFU Reduction (SEM), lungs: 1.38 (0.16) Log10CFU
  Log10CFU (SEM), lungs: 6.69 (0.07) Log10CFU
  Log10CFU Reduction (SEM), spleen: 1.17 (0.18) Log10CFU
  Log10CFU (SEM), spleen: 6.03 (0.12) Log10CFU
M. tuberculosis Erdman; [26]
  Log10CFU Reduction (SEM), lungs: 1.08 (0.15) Log10CFU
  Log10CFU (SEM), lungs: 6.99 (0.06) Log10CFU
  Log10CFU Reduction (SEM), spleen: 1.44 (0.16) Log10CFU
  Log10CFU (SEM), spleen: 5.76 (0.08) Log10CFU
M. tuberculosis Erdman; [27]
  Log10CFU Reduction (SEM), lungs: 1.10 (0.21) Log10CFU
  Log10CFU (SEM), lungs: 6.99 (0.15) Log10CFU
  Log10CFU Reduction (SEM), spleen: 1.03 (0.20) Log10CFU
  Log10CFU (SEM), spleen: 6.17 (0.14) Log10CFU
M. ulcerans (ATCC 35840)
  MIC: 0.02 to 0.05 µg/mL (≈ 0.0387 to 0.0966 µM)
[8]
  MIC: 12.5 µg/mL (≈ 24.2 µM)
[9]
  MIC: 50 µg/mL (≈ 96.6 µM)
M. tuberculosis H37Rv
  MBC: 3.13–6.25
M. tuberculosis H37Rv; cidal or static from MBC versus MIC
  Classification: Static (static (MBC/MIC >4))
[10]
  MIC: > 200 µg/mL
[11]
  % Growth vs. Control: <0.1%
[11]; 10 µg/mL, NRP-2 bacilli
  killing of hypoxic bacilli: > 99.9%
[12]
  MIC: > 200 µg/mL
[13]
  MIC: 50 µg/mL (≈ 96.6 µM)
[14]
  MIC: > 200 µg/mL
[15]; iv, 10 mg/kg
  Vd: 6.72 (1.10) L/kg
  fe (fraction excreted unchanged in urine): 0.04 (0.01) %
[15]; po, 100 mg/kg
  AUC0-∞: 10.2 (9.1) mg h/L
  Cmin,24 h: 0.17 (0.16) mg/L
[15]
  Cmax: 850 ng/mL
  Cmin,24 h: 0.17 µg/mL
E. coli K12 ∆tolC
  Minimum Inhibitory Concentration, E.c. ΔtolC: 50 µg/mL
H37Rv-wt
  MIC: 0.025 µg/mL (≈ 0.0483 µM)
[16]
  MIC: > 200 µg/mL
[17]
  MIC: > 200 µg/mL
M. kansasii (ATCC 12478)
  MIC: 3.13 to 6.25 µg/mL (≈ 6.05 to 12.1 µM)
[18]
  Solubility (pH 7.4): 2.7 ^h µg/mL
[19]
  MIC: 200 µg/mL (≈ 387 µM)
M. avium (ATCC 25291)
  MIC: 200 µg/mL (≈ 387 µM)
M. fortuitum (ATCC 6841)
  MIC: 6.25 to 12.5 µg/mL (≈ 12.1 to 24.2 µM)
[20]
  MIC: 12.5 µg/mL (≈ 24.2 µM)
[21]
  MIC: 100 µg/mL (≈ 193 µM)
